In US5866588A, “Imidazopyridine derivatives” (British Biotech Pharmaceuticals Ltd., priority 1995, dated 1999):

Assays:
[1] = biological target: T1, histamine-1 receptors on Hela-S3 cells (Homo sapiens, UniProt P35367); assay: Inhibition of [^3 H]-Pyrilamine Binding to Histamine-1 Receptors on Hela-S3 Cells; conditions: 0.5 h; 1 μM test compound; [^3 H]-pyrilamine remaining specifically bound; 37° C., 30 minutes; read-out: % Specific Binding at 1 μM
T1 construct: histamine-1 receptors on Hela-S3 cells (American Type Culture Collection); host or cells: HeLa-S3 cells (intact cell suspension)
Procedure: Inhibition of [^3 H]-Pyrilamine Binding to Histamine-1 Receptors on Hela-S3 Cells
The inhibition of [^3 H]-pyrilamine binding to histamine-1 receptors on Hela-S3 cells (American Type Culture Collection) was determined by isotopic labelling and filtration techniques. A suspension of the cells in buffer (25 ml, 0.5% Bovine Serum Albumin, 0.1% sodium azide, phosphate buffered saline (PBS)) was centrifuged at 1000 rpm for 5 minutes in a JOUAN CR 422 centrifuge, collected, resuspended in buffer (25 ml) and spun again. The cells were counted using a haemocytometer and resuspended in buffer to provide a final concentration of 4.5×10^6 cells ml^-1. A portion of the Hela-S3 cell suspension (1 ml) was added to each assay tube containing 25 μl of vehicle (50% DMSO/buffer) or 25 μl of test compound solution (dissolved in DMSO and diluted with sufficient PBS to give a final test concentration of 1 μM) and 25 μl of [^3 H]-pyrilamine (supplied by Amersham International and diluted with PBS to 3 nM). The tubes were mixed, incubated at 37° C. for 30 minutes and then spun at 4° C. at 2000 rpm for 2 minutes. The supernatant was removed and the cells resuspended in buffer (repeated ×2). The cells were suspended in 300 μl of a 2:1 solution of 1M sodium hydroxide and 1% sodium dodecyl sulphate. The tubes were left ovemight before the contents were tranferred to a scintillation vial, treated with 10 ml, OPTIPHASE MP scintillation fluid (OPTIPHASE MP is a trade mark) and the radioactivity counted in a scintillation counter. Non-displacable binding (NDB) was determined using Astemizole (5×10^-5 M) in place of test compounds. Defining the counts for total binding from the vehicle control sample as "TB" and the counts for total binding with antogonist as "TBA" the percentage specific binding (% SB) can be determined from the following equation.

[2] = system: PAF-Induced Platelet Aggregation; assay: Inhibition of PAF-Induced Platelet Aggregation; assay type: cell-based, rabbit (New Zealand White); conditions: Oryctolagus cuniculus; rabbit platelet-rich plasma, PAF 100 ngml^-1
Procedure: Inhibition of PAF-Induced Platelet Aggregation
Male New Zealand White rabbits (3.0-3.5 kg) were anaesthetised by intravenous administration of sodium pentobarbitone, 18 mg.ml^-1, via a marginal ear vein. The trachea was exposed and connected to a respiratory pump (Harvard UK) to provide artificial ventilation. A carotid artery was exposed and cannulated and the animal was exsanguinated. Whole blood was collected in a syringe containing tri-sodium citrate (3.8% w/v) to a ratio of 1 part citrate:9 parts blood.
Collected blood was centrifuged at 180×g for 15 minutes at room temperature (21° C.) to prepare platelet-rich plasma (PRP). The remaining blood was then centrifuged at 1800×g for 10 minutes at room temperature to obtain platelet poor plasma (PPP).
Platelet count of the PRP was measured using a Technicon H1 blood cell differential analyser (Bayer Diagnostics UK) and adjusted with PPP to obtain a final platelet count of 500,000 platelets per μl of plasma, this being the normal physiological platelet count for rabbits. Corrected PRP was left to equilibrate at room temperature for 30 minutes before use.
Aggregation studies were carried out using a 4-channel aggregometer (PAP-4C, BioData USA) as follows: 400 μl aliquots of PRP were placed in siliconised cuvettes and incubated to 37° C. for 1 to 2 minutes in the heating block of the aggregometer. Baseline (100% aggregation) was set up using PPP (500 μl in a siliconised cuvette). The PRP was placed into a measuring well of the aggregometer, and a stirrer bar was added. The sample was stirred at 1000 rpm. The machine was activated to set the 0% aggregation level. Test compound or vehicle (50 μl) was added to the PRP, where any effects on the baseline was noted. PAF (100 ngml^-1 as 50 μl aliqout) was added to the PRP 3 minutes after test compound or vehicle. Aggregation was measured for a further 4 minutes after PAF addition and the maximum aggregation over the 4 minutes was recorded.
The investigation of different concentrations of test compound was performed in triplicate. Data were expressed as […] of the sample and test compound data were compared to vehicle data to obtain % inhibition of the PAF-induced aggregation from which IC50 values could be determined.
PAF was made up in sterile saline (NaCl 0.9% w/v) containing BSA (0.25% w/v) from an initial stock solution (10 mgml^-1 in EtOH). Test compounds were made up as 1×10^-3 M stock solutions in sterile saline containing molar equivalents of 1N HCl (v/v) or in DMSO.
In the results which follow, a comparison compound A was included. Compound A was prepared as described in EP-A-260613 (G. D. Searle), but is not part of the present invention. As appears from the results of the comparison, compounds of this invention, all of which incorporate a fragment capable of H1 antagonist activity, are observed to show improved PAF antagonist activity over compound A.

T1 sequence (P35367 whole entry): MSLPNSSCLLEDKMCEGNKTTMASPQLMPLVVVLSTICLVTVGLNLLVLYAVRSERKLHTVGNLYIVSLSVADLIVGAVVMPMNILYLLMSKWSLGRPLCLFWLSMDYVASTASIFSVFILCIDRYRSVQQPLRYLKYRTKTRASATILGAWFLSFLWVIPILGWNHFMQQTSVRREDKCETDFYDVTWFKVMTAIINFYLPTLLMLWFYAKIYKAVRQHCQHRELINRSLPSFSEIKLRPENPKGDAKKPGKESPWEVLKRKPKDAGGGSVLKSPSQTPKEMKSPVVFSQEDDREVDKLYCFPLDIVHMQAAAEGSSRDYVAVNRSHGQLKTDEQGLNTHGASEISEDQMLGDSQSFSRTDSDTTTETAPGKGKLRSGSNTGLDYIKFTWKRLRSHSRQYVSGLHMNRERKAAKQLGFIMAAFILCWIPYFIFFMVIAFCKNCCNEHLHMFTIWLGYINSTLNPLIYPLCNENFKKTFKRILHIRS

| Structure (SMILES) | activity at 1 µM [1] | IC50 [2] |
| --- | --- | --- |
| CCC(C)N(C/C=C/c1cccc(/C(=C/CN2CCCC2)c2ccc(C)cc2)n1)C(=O)c1ccc(Cn2c(C)nc3cnccc32)cc1 (racemic) [Example 9, N-(R,S) sec-Butyl-4-(1H-2-methylimidazo[4,5-c]pyridin-1-ylmethyl)-N-(E)-{3-[6-(3-pyrrolidin-1-yl-1-{4-tolyl}-prop-1E-enyl)-pyridin-2-yl]-prop-2-enyl}-benzamide] | 63% | 0.043 µM |
| CN(C(=O)c1ccc(Cn2cnc3cnccc32)cc1)C1CCCCC1 [Compound A, reference compound] |  | 74 µM |
| Cc1ccc(/C(=C\CN2CCCC2)c2cccc(/C=C/COC(=O)c3ccc(Cn4c(C)nc5cnccc54)cc3)n2)cc1 [Example 1, 4-(1H-2-Methylimidazo[4,5-c]pyridin-1-ylmethyl)benzoic acid 3-[6-(3-pyrrolidin-1-yl-1-{4-tolyl}-prop-1E-enyl)-pyridin-2-yl]prop-2E-enyl ester] | 16% | 2.1 µM |
| Cc1ccc(/C(=C\CN2CCCC2)c2cccc(CCCOC(=O)c3ccc(Cn4c(C)nc5cnccc54)cc3)n2)cc1 [Example 2, 4-(1H-2-Methylimidazo[4,5-c]pyridin-1-ylmethyl)benzoic acid 3-[6-(3-pyrrolidin-1-yl-1-{4-tolyl}-prop-1E-enyl)-pyridin-2-yl]propyl ester] | 15% | 0.542 µM |
| Cc1ccc(/C(=C\CN2CCCC2)c2cccc(/C=C/CNC(=O)c3ccc(Cn4c(C)nc5cnccc54)cc3)n2)cc1 [Example 5, 4-(1H-2-Methylimidazo[4,5-c]pyridin-1-ylmethyl)-N-{3-[6-(3-pyrrolidino-1-{4-tolyl}-prop-1E-enyl)-pyridin-2-yl]-prop-2E-enyl}-benzamide] | 16% | 2.2 µM |
| Cc1ccc(/C(=C\CN2CCCC2)c2cccc(/C=C/CN(CCC(C)C)C(=O)c3ccc(Cn4c(C)nc5cnccc54)cc3)n2)cc1 [Example 6, N-(3-Methyl-but-1-yl)-4-(1H-2-methylimidazo[4,5-c]pyridin-1-ylmethyl)-N-{3-[6-(3-pyrrolidin-1-yl-1-{4-tolyl}-prop-1E-enyl)-pyridin-2-yl]-prop-2E-enyl}-benzamide] | 29% | 0.333 µM |
| Cc1ccc(/C(=C\CN2CCCC2)c2cccc(/C=C/CN(CC(C)C)C(=O)c3ccc(Cn4c(C)nc5cnccc54)cc3)n2)cc1 [Example 7, N-iso-Butyl-4-(1H-2-methylimidazo[4,5-c]pyridin-1-ylmethyl)-N-{3-[6-(3-pyrrolidin-1-yl-1-{4-tolyl}-prop-1E-enyl)-pyridin-2-yl]-prop-2E-enyl}-benzamide] | 40% | 0.133 µM |
| Cc1ccc(/C(=C\CN2CCCC2)c2cccc(/C=C/CN(C(=O)c3ccc(Cn4c(C)nc5cnccc54)cc3)C3CCCC3)n2)cc1 [Example 8, N-Cyclopentyl-4-(1H-2-methylimidazo[4,5-c]pyridin-1-ylmethyl)-N-{3-[6-(3-pyrrolidin-1-yl-1-{4-tolyl}-prop-1E-enyl)-pyridin-2-yl]-prop-2E-enyl}-benzamide] | 34% | 0.092 µM |
| Cc1ccc(/C(=C\CN2CCCC2)c2cccc(/C=C/CN(C(=O)c3ccc(Cn4c(C)nc5cnccc54)cc3)C(C)(C)C)n2)cc1 [Example 10, N-tert-Butyl-4-(1H-2-methylimidazo[4,5-c]pyridin-1-ylmethyl)-N-{3-[6-(3-pyrrolidin-1-yl-1-{4-tolyl}-prop-1E-enyl)-pyridin-2-yl]-prop-2E-enyl}-benzamide] | 62% | 2.01 µM |
| Cc1ccc(/C(=C\CN2CCCC2)c2cccc(/C=C/CN(C(=O)c3ccc(Cn4c(C)nc5cnccc54)cc3)C3CC(C)CC(C)C3)n2)cc1 (centres unmarked) [Example 11, N-3,5-Dimethylcyclohexyl-4-(1H-2-methylimidazo[4,5-c]pyridin-1-ylmethyl)-N-{3-[6-(3-pyrrolidin-1-yl-1-{4-tolyl}-prop-1E-enyl)-pyridin-2-yl]-prop-2E-enyl)-benzamide] | 60% | 0.176 µM |
| Cc1ccc(/C(=C\CN2CCCC2)c2cccc(/C=C/CN(C(=O)c3ccc(Cn4c(C)nc5cnccc54)cc3)C(C)C)n2)cc1 [Example 12, N-iso-Propyl-4-(1H-2-methylimidazo[4,5-c]pyridin-1-ylmethyl)-N-{3-[6-(3-pyrrolidin-1-yl-1-{4-tolyl}-prop-1E-enyl)-pyridin-2-yl]-prop-2E-enyl)-benzamide] | 64% | 0.058 µM |
| Cc1ccc(/C(=C\CN2CCCC2)c2cccc(CCCN(C(=O)c3ccc(Cn4c(C)nc5cnccc54)cc3)C3CCCCC3)n2)cc1 [Example 17, N-Cyclohexyl-4-(1H-2-methylimidazo[4,5-c]pyridin-1-ylmethyl)-N-{3-[6-(3-pyrrolidin-1-yl-1-{4-tolyl}-prop-1E-enyl)-pyridin-2-yl]-propyl}-benzamide] | 58% | 0.315 µM |
| CCCCN(C/C=C/c1cccc(/C(=C/CN2CCCC2)c2ccc(C)cc2)n1)C(=O)c1ccc(Cn2c(C)nc3cnccc32)cc1 [Example 22, N-Butyl-4-(1H-2-methylimidazo[4,5-c]pyridin-1-ylmethyl)-N-{3-[6-(3-pyrrolidin-1-yl-1-{4-tolyl}-prop-1E-enyl)-pyridin-2-yl]-prop-2E-enyl}-benzamide] | 31% | 0.062 µM |
| Cc1ccc(/C(=C\CN2CCCC2)c2cccc(/C=C/CN(C)C(=O)c3ccc(-n4c(C)nc5cnccc54)cc3)n2)cc1 [Example 26, N-Methyl-4-(1H-2-methylimidazo[4,5-c]pyridin-1-yl)-N-{3-[6-(3-pyrrolidin-1-yl-1-{4-tolyl}-prop-1E-enyl)-pyridin-2-yl]-prop-2E-enyl}-benzamide] | 26% |  |
